The values below are quoted from earlier work in patent US20020155136A1, “MEDICINE CONTAINING YOHIMBINE AND ARGININE FOR TREATING ERECTILE DYSFUNCTION” (priority 1997, published 2002).

In data set [1] the test system is impotence of psychogenic origin.
Data set [2] has as its system erectile dysfunction. The settings on record: 2800 mg per day; Zorgniotti and Lizza 1994.

Turning to `COC(=O)[C@@H]1[C@H]2C[C@H]3c4[nH]c5ccccc5c4CCN3C[C@@H]2CC[C@@H]1O` [yohimbine], in data set [1] (for relatively large doses, The Medical Letter 1995), the side effects observed entry is “vertigo, anxiety, nervousness, headaches, insomnia and an increase in arterial pressure”. Further, the “improvements, proportion of cases” value in data set [1] (impotence of psychogenic origin, published studies, results controversial) is reported as 35 to 45 % of cases. For `N=C(N)NCCC[C@H](N)C(=O)O` [L-arginine], the “favourable effect on erectile dysfunction, proportion of cases” value in data set [2] is on record as “approximately 40 % of cases”.
